The source of these data is patent publication US4552895A, “Furo[3,2-b]furan-2-(3H)-ones” (Eli Lilly and Company, priority 1983, dated 1985).

One assay concerns angiogenesis factor. Description: Tumor angiogenesis inhibition in vivo: serpentine vessels induced by lysosomal-mitochondrial preparation from 3683 Morris hepatoma in mice. More on the design: species or system mice (SPF/ND4 female). The settings on record: Mus musculus, ip, mice sacrificed after 24 hours, average number of serpentine vessels vs control. As to the method:
Lysosomal-mitochondrial pellets containing angiogenesis factor are prepared from 3683 Morris hepatoma. The pellet is diluted with 7-8 ml. of 15% ficoll. At this dilution, 8-10 serpentine vessels are usually produced per 0.2 cc. injection as described below for the control group.
Next, 15 SPF/ND4 female mice weighing 20-22 g. are shaved on the left side and then divided into three groupss of five each. One group (drug group) is injected subcutaneously and laterally with 0.2 cc. of the lysosomal-mitochondrial preparation diluted with 15% ficoll. This group of mice is then dosed individually by the intraperitoneal route with 0.5 cc. of a solution or suspension in a standard vehicle containing the compound under test, usually at an initial dose level of 300 mg./kg. If this dose level is toxic, two-fold dilutions are made until all mice survive a single dose. The second group of mice (control group) is injected subcutaneously and laterally with 0.2 cc. of the lysosomal-mitochondrial suspension diluted with ficoll and dosed intraperitoneally with 0.5 cc. of the vehicle alone. The third group of mice (negative control) is injected with the ficoll solution only (without the lysosomal-mitochondrial pellet) without treatment with compound or vehicle. The mice are sacrificed after 24 hours. Each mouse is placed on its side on a dissecting board with the shaved side up. Starting at the flank, the skin is cut straight to the back of the animal. A similar cut is made behind the front leg. The skin is then cut along the back making a flap of about one inch by two inches. The skin is carefully separated from the connective tissue by using forceps and a scalpel. The skin flap is then laid back exposing the lysosomal-mitochondrial implant which is attached to the skin. The skin flap is gently flattened out and with the use of a binocular dissecting scope, serpentine vessels are observed around the lysosomal-mitochondrial implant and their number counted. All observations of the number of serpentine vessels are made at the same power of the microscope (1×). The average number of serpentine vessels for each group is calculated. The percent inhibition is then calculated according to the following equation. [formula] where sv=averge number of serpentine vessels.
If the negative control group described above has any serpentine vessels, the test is invalid due to contamination of the ficoll solution.

For assay [1], the system named is Collagen-Induced Arthritis. The experiment in a line: Collagen-induced arthritis assay (type II collagen, hindpaw volume) in rats. In kind it is in vivo, inbred Lewis male rats. The settings on record: oral gavage 5 days per week from day 1 to day 28 or 30. As to the method:
This test method is a collagen arthritis assay carried out as follows.
Type II collagen is isolated from bovine articular cartilage by the method of Strawich and Nimni [Biochemistry, 10, 3905 (1971)]. The collagen is dissolved in 0.1M acetic acid and stored at -20° C. Type II collagen solution is diluted to 2 mg./ml. concentration and emulsified thoroughly with an equal volume of incomplete Freund's adjuvant (ICFA). The emulsion containing approximately 0.5 mg. of collagen is injected intradermally on day 0 to groups of 6 inbred Lewis male rats (Charles River Breeders; 170-200 g.) at various sites in the dorsal area. The hindpaw volumes of each rat are measured and recorded three times a week throughout the test period to assess the inflammatory reaction. The test group animals receive compounds under test as suspensions in carboxymethylcellulose vehicle, by oral gavage, 5 days per week (Monday-Friday), beginning on day 1. Control animals receive vehicle without a test compound. At the end of the test (day 28 or 30), the blood of these animals is drawn by cardiac puncture and the serum anti-type II collagen antibody levels are estimated by passive hemagglutination technique, using glutaraldehyde treated sheep red cells, to which type II collagen is conjugated [Avrameas et al., Immunochemistry, 6, 67 (1969); Andriopoulos et al., Arth. Rheum., 19, 613 (1976)]. The cellular response or delayed-type hypersensitivity response to type II collagen is measured by the radiometric ear index assay [Kostiala, Immunology, 33, 561 (1977)]. In certain experiments, the bone damage occurring because of immunization with type II collagen and the effects of drugs are determined from the radiographs of the hindpaws of two or three representative animals from each group. Injections of ICFA without collagen II were employed to some rats as a negative control; these rats received only […] vehicle during the test.
The % inhibition is calculated according to the following formula: [formula] where Vt is the hindpaw volume of a compound-treated animal (test group), Vc is the hindpaw volume of a non-compound-treated animal ([…] vehicle only-the control group), the Vv is the hindpaw volume of a vehicle ([…]) treated animal which received ICFA with no collagen II (negative control group).

Broadly, the inhibition in vivo is the change of the read-out against control, counted positive when it falls. The molecule `Cc1cccc(CC2(O)C(=O)OC3C(O)COC32O)c1` (stereo not drawn) [Example 9] displayed an inhibition in vivo at 25 mg/kg in the assay on angiogenesis factor of 48%.

In the assay with angiogenesis factor, `Cc1ccccc1CC1(O)C(=O)OC2C(O)COC21O` (stereo not drawn) [Example 10] gave an inhibition in vivo at 25 mg/kg of 48%.

The molecule `Cc1ccc(CC2(O)C(=O)OC3C(O)COC32O)cc1` (stereo not drawn) [Example 11] yielded an inhibition in vivo at 25 mg/kg in the assay on angiogenesis factor of 62%. In assay [1] (15 mg./kg.), the “Inhibition of Collagen-Induced Arthritis, % inhibition” value (“Inhibition … % inhibition” for short) is 94%.

Take `O=C1OC2C(O)COC2(O)C1(O)Cc1ccccc1Cl` (stereo not drawn) [Example 4]: at 25 mg/kg the inhibition in vivo in the assay on angiogenesis factor was 38%.

As for `O=C1OC2C(O)COC2(O)C1(O)Cc1ccc(C(F)(F)F)cc1` (stereo not drawn) [Example 8], in the assay on angiogenesis factor, the inhibition in vivo at 25 mg/kg turned out to be 55%.

Regarding `Cc1ccc(C)c(CC2(O)C(=O)OC3C(O)COC32O)c1` (stereo not drawn) [Example 12], the inhibition in vivo at 25 mg/kg in the assay on angiogenesis factor was determined as 58%. For the same molecule, the “Inhibition … % inhibition” value in assay [1] (25 mg./kg.) came out at 23%.

In the assay on angiogenesis factor, `O=C1OC2C(O)COC2(O)C1(O)Cc1ccccc1F` (stereo not drawn) [Example 6] yielded an inhibition in vivo at 25 mg/kg of 33%.

With `O=C1OC2C(O)COC2(O)C1(O)Cc1ccc(Cl)cc1` (stereo not drawn) [Example 5], the inhibition in vivo at 25 mg/kg in the assay with angiogenesis factor came out at 52%. Moreover, the “Inhibition … % inhibition” value in assay [1] (15 mg./kg.) was found to be 81%.

Turning to `O=C1OC2C(O)COC2(O)C1(O)Cc1cccc(Br)c1` (stereo not drawn) [Example 2], the inhibition in vivo at 25 mg/kg in the assay on angiogenesis factor stood at 45%.

The molecule `O=C1OC2C(O)COC2(O)C1(O)Cc1cccc(Cl)c1` (stereo not drawn) [Example 3] had an inhibition in vivo at 25 mg/kg with angiogenesis factor of 55%. For the same molecule, the “Inhibition … % inhibition” value in assay [1] (15 mg./kg.) is reported as 100%.

Consider `O=C1OC2C(O)COC2(O)C1(O)Cc1ccc(F)cc1` (stereo not drawn) [Example 1, [3R-(3aα,6α,6aα)]-tetrahydro-3,3a,6-trihydroxy-3-[(4-fluorophenyl)methyl]furo[3,2-b]furan-2(3H)-one], for which at 25 mg/kg the inhibition in vivo in the assay with angiogenesis factor was 62%. Further, the “Inhibition … % inhibition” value in assay [1] (25 mg./kg.) came to 94%.

With `O=C1OC2C(O)COC2(O)C1(O)Cc1cccc(F)c1` (stereo not drawn) [Example 7], in the assay on angiogenesis factor, testing at 25 mg/kg gave an inhibition in vivo of 57%. Further, the “Inhibition … % inhibition” value in assay [1] (25 mg./kg.) was 100%.
